According to publication PMC12211128, “Safety, tolerability, pharmacokinetic and pharmacodynamic effects of the muscarinic M1 positive allosteric modulator VU0467319 for Alzheimer’s disease: a single ascending-dose study in healthy participants” (Alzheimer's Research & Therapy, 2025):

How the values were obtained:
[1] = tested on: healthy participants; test: Selective Reminding Task (SRT); format: in vivo, human; conditions: for SRT Delayed Recall / SRT Immediate Recall / SRT Recall Consistency / SRT Recall Failure: mean (SD)
Excerpt: The Selective Reminding Task (SRT; [36]) was used to test immediate and delayed episodic memory. Participants were read a list of 16 words and must immediately recall the list across eight trials, then again after a 20-minute delay. The outcome measures were the SRT total immediate recall across the eight trials, recall consistency as the number of words correctly recalled on two sequential trials, recall failure as the number of words not recalled on two sequential trials, and the delayed recall after the 20-min delay.
Cognitive data: In this exploratory analysis, each outcome variable of the cognitive data was examined in a mixed model analysis of variance with one between-subjects factor of VU319 dose (0, 60, 120, 240, 400, 600 mg) and a within-subjects factor of testing session (pre-dose vs. post-dost administration). Post-hoc analysis compared each of the VU319 dose cohorts against the placebo group. Because the participants were healthy adults with normal cognitive function, we considered effects between no reductions in function to small improvement (d = 0.0–0.20) to be a positive result. For the food effect study, only the participants who received VU319 were examined due to the disproportionately small placebo group (n = 2). A within-subjects ANOVA including food condition (fasted/fed) and testing session (pre-dose vs. post-dose administration) was performed on each outcome variable.
The Selective Reminding Task (SRT; (Buschke & Fuld, 1974)) was used to test immediate and delayed episodic recall. Participants were read a list of 16 words and must immediately recall the list across 8 trials. […] Upon completing the immediate recall portion of the SRT and after a 20‐minute delay, participants were asked to complete a single delayed recall trial. SRT total immediate recall was analyzed using the number of correctly recalled words across trials 1–8, total immediate recall consistency was analyzed using the number of words correctly recalled on two sequential trials across trials 1–8, SRT total immediate recall failure was analyzed using the number of words not recalled on two sequential trials across trials 1–8, and total delayed recall was analyzed using the number of words correctly recalled after a 20-min delay.

[2] = tested on: healthy participants; test: Clinical laboratory parameters; format: in vivo, human; conditions: food effect study, 120 mg; 72 h post-dose, closer to normal by 144 h
Procedure: Safety and tolerability were assessed throughout the study via treatment emergent adverse event (TEAE) monitoring, vital signs (blood pressure, pulse rate, respiration rate, oral temperature), physical examinations, 12-lead ECGs, and clinical laboratory parameters including complete blood count (CBC), coagulation, hematology, clinical chemistry assessments, and urinalysis. Safety laboratory tests were drawn at pre-dose and at 5, 24, 36 and 144-hours post-dose for 60–400 mg Cohorts; and at 24, 48, 72 and 144-hours post-dose for the 600 mg and Food Effect Cohort. ECG assessments were conducted at pre-dose and at 1, 2, 3, 5, 9, 24, 36 and 144-hours post-dose for 60–400 mg Cohorts; and at 2, 3, 5, 9, 24, 36, 72 and 144-hours post-dose for the 600 mg and Food Effect Cohort. All adverse events (AEs) were assessed by the investigator for severity and relationship to study medication or study procedures.

[3] = Food effect study 120 mg, Fasting, Post-Drug
[4] = Food effect study 120 mg, Fasting, Pre-Drug
[5] = Food effect study 120 mg, Fed, Post-Drug
[6] = Food effect study 120 mg, Fed, Pre-Drug

SMILES: Cn1cc2c(-c3cc(F)c(CN4Cc5ncccc5C4=O)c(F)c3)cccc2n1 [VU319]
- SRT Delayed Recall [1, 3]: 11.3 (3.97)
- SRT Immediate Recall [1, 3]: 88.9 (19.83)
- SRT Recall Consistency [1, 3]: 55.7 (26.22)
- SRT Recall Failure [1, 3]: 10.2 (9.74)
- SRT Delayed Recall [1, 4]: 11.5 (3.69)
- SRT Immediate Recall [1, 4]: 86.6 (17.61)
- SRT Recall Consistency [1, 4]: 51.1 (24.64)
- SRT Recall Failure [1, 4]: 9.4 (8.54)
- SRT Delayed Recall [1, 5]: 10.9 (3.92)
- SRT Immediate Recall [1, 5]: 88.9 (20.45)
- SRT Recall Consistency [1, 5]: 53.4 (27.22)
- SRT Recall Failure [1, 5]: 8.3 (10.58)
- SRT Delayed Recall [1, 6]: 11.2 (3.33)
- SRT Immediate Recall [1, 6]: 88.7 (13.59)
- SRT Recall Consistency [1, 6]: 54 (18.33)
- SRT Recall Failure [1, 6]: 8 (6.11)
- SRT Delayed Recall ([1]; SAD study, 60 mg, Post-Drug): 8.83 (3.55)
- SRT Immediate Recall ([1]; SAD study, 60 mg, Post-Drug): 71.67 (14.95)
- SRT Recall Consistency ([1]; SAD study, 60 mg, Post-Drug): 35.33 (18.32)
- SRT Recall Failure ([1]; SAD study, 60 mg, Post-Drug): 19.83 (9.37)
- SRT Delayed Recall ([1]; SAD study, 60 mg, Pre-Drug): 9 (3.52)
- SRT Immediate Recall ([1]; SAD study, 60 mg, Pre-Drug): 79.83 (13.18)
- SRT Recall Consistency ([1]; SAD study, 60 mg, Pre-Drug): 44 (22.93)
- SRT Recall Failure ([1]; SAD study, 60 mg, Pre-Drug): 13.5 (4.46)
- SRT Delayed Recall ([1]; SAD study, 120 mg, Post-Drug): 9.5 (5.86)
- SRT Immediate Recall ([1]; SAD study, 120 mg, Post-Drug): 84 (19.55)
- SRT Recall Consistency ([1]; SAD study, 120 mg, Post-Drug): 49.33 (25.15)
- SRT Recall Failure ([1]; SAD study, 120 mg, Post-Drug): 12.5 (10.78)
- SRT Delayed Recall ([1]; SAD study, 120 mg, Pre-Drug): 10.17 (5.42)
- SRT Immediate Recall ([1]; SAD study, 120 mg, Pre-Drug): 84.67 (20.24)
- SRT Recall Consistency ([1]; SAD study, 120 mg, Pre-Drug): 51.67 (27.6)
- SRT Recall Failure ([1]; SAD study, 120 mg, Pre-Drug): 13 (9.76)
- SRT Delayed Recall ([1]; SAD study, 240 mg, Post-Drug): 9 (2.45)
- SRT Immediate Recall ([1]; SAD study, 240 mg, Post-Drug): 80.67 (13.65)
- SRT Recall Consistency ([1]; SAD study, 240 mg, Post-Drug): 41.5 (16.11)
- SRT Recall Failure ([1]; SAD study, 240 mg, Post-Drug): 10.83 (10.83)
- SRT Delayed Recall ([1]; SAD study, 240 mg, Pre-Drug): 10.67 (1.86)
- SRT Immediate Recall ([1]; SAD study, 240 mg, Pre-Drug): 87.33 (11.38)
- SRT Recall Consistency ([1]; SAD study, 240 mg, Pre-Drug): 54.33 (13.31)
- SRT Recall Failure ([1]; SAD study, 240 mg, Pre-Drug): 10.83 (7.73)
- SRT Delayed Recall ([1]; SAD study, 400 mg, Post-Drug): 7.83 (3.87)
- SRT Immediate Recall ([1]; SAD study, 400 mg, Post-Drug): 70.83 (16.03)
- SRT Recall Consistency ([1]; SAD study, 400 mg, Post-Drug): 33.33 (18.24)
- SRT Recall Failure ([1]; SAD study, 400 mg, Post-Drug): 20 (11.15)
- SRT Delayed Recall ([1]; SAD study, 400 mg, Pre-Drug): 8.83 (4.79)
- SRT Immediate Recall ([1]; SAD study, 400 mg, Pre-Drug): 76.33 (24.51)
- SRT Recall Consistency ([1]; SAD study, 400 mg, Pre-Drug): 42.33 (29.85)
- SRT Recall Failure ([1]; SAD study, 400 mg, Pre-Drug): 19 (15.66)
- SRT Delayed Recall ([1]; SAD study, 600 mg, Post-Drug): 8.67 (4.8)
- SRT Immediate Recall ([1]; SAD study, 600 mg, Post-Drug): 85.83 (21.7)
- SRT Recall Consistency ([1]; SAD study, 600 mg, Post-Drug): 51 (27.8)
- SRT Recall Failure ([1]; SAD study, 600 mg, Post-Drug): 10.67 (12.58)
- SRT Delayed Recall ([1]; SAD study, 600 mg, Pre-Drug): 11.83 (1.94)
- SRT Immediate Recall ([1]; SAD study, 600 mg, Pre-Drug): 91.17 (11.81)
- SRT Recall Consistency ([1]; SAD study, 600 mg, Pre-Drug): 59.83 (13.39)
- SRT Recall Failure ([1]; SAD study, 600 mg, Pre-Drug): 8.17 (5.27)
- SRT four outcome measures, effect of dose ([1]; SAD study, all p > 0.2): did not show a significant effect of dose, nor dose by time
- SRT performance, effect of food or time ([1]; food effect study, 120 mg): no impact of food or time
- ALT and AST levels [2]: moderate increase in ALT and AST levels reported by one participant
